Measurements taken from patent US20240261302A1, “METHODS OF TREATING NEURODEGENERATIVE DISEASES OR CONDITIONS” (FloraScience Inc., priority 2023, published 2024).
pEC50: −log10 of the molar value.

How the values were obtained:
[1] = Cell viability after RSL3 with/without FCCP (CyQUANT DNA-based assay, fluorescence microscopy), mt-GFP/mCherry-Parkin cells; set-up: species or system mouse; conditions: mouse, HT22 mt-GFP/mCherry-Parkin cells, FCCP treatment 40 hr, read-out: decrease in cell viability compared to the vehicle control
[2] = Cell viability after RSL3 with/without FCCP (CyQUANT DNA-based assay, fluorescence microscopy), mt-GFP WT cells; set-up: species or system mouse; conditions: mouse, HT22 mt-GFP WT cells, FCCP treatment 40 hr, read-out: decrease in cell viability compared to the vehicle control
[3] = system: HT22 mt-GFP/mCherry-Parkin cells; experiment: Cell viability after RSL3 with/without FCCP (CyQUANT DNA-based assay, fluorescence microscopy), mt-GFP/mCherry-Parkin cells; set-up: species or system mouse; conditions: for protection against RSL3-induced cell death, no FCCP pretreatment: 16 hr; for protection against RSL3 after FCCP pretreatment (mitochondria-depleted cells): FCCP 5 μM 24 hr, then 16 hr
HT22 cells [4] = experiment: Cellular Lipid Peroxidation Measurement (C11-BODIPY); format: cell-based, mouse
Description: Lipid Peroxidation MeasurementsHT22 cells were seeded onto 96-well black walled plates at a density of 3,000 cells/well in DMEM supplemented with 10% FBS and 1% antibiotics. After the desired treatments, cells were labeled with 2.5 μM C11-BODIPY 581/591 (oxidized form Ex/Em=488/520 nm) at 37° C. for 2 hr. Experiments were performed according to the manufacturer's instructions. Fluorescence was measured on a SpectraMax M5 microplate reader. Data were normalized for total protein/well. Each condition was analyzed in twelve wells per independent experiment (n=12). Results were presented as the percentage of the controls with vehicle alone. Results were verified by live-cell imaging under a fluorescence microscope.

HT22 cells [5] = experiment: Ferroptosis Assay (RSL3-induced cell death, MTT); format: cell-based, mouse
Description: Ferroptosis Assay: HT22 cells were seeded at 3,000 cells/well in 96-well tissue culture plates in DMEM plus 10% FBS and 1% antibiotics. After 24 hr of plating, the cells were pretreated with different concentrations of test compounds or a vehicle control for 1 hr followed by coincubation with 50 nM RSL3 to induce the cell death cascade. After 16 hr of treatment, cell viability was measured by the MTT assay. Optical absorbance was measured at 570 nm on a SpectraMax M5 microplate reader. Samples were analyzed in eight to sixteen wells per independent experiment (n=8-16). Results were presented as the percentage of the controls with vehicle alone.

HT22 cells [6] = experiment: Mitochondrial Membrane Potential Assay (JC-10) in HT22 cells; format: cell-based, mouse; conditions: 50 nM, 4 hr
Description: Mitochondrial Membrane Potential Assay. Cells seeded at 5,000 cells/well onto 96-well black walled plates were treated with test compounds at the desired concentrations under the culture condition described above. The mitochondrial uncoupler FCCP at 2 μM was used as a reference control. After the desired treatments for 4 hr, the cells were subjected to a JC-10 mitochondrial membrane potential assay according to the manufacturer's instruction. Fluorescence intensities (Ex/Em=490/525 nm, and Ex/Em=540/590 nm) of each well were monitored on a SpectraMax M5 microplate reader. The ratio of fluorescence intensity (590/525 nm) was used to determine the mitochondrial membrane potential (ΔΨm). Decreasing ratios indicate mitochondrial membrane depolarization. Samples were analyzed in eight to sixteen wells per independent experiment (n=8-16). Results were verified by live-cell imaging under a fluorescence microscope.

HT22 mt-GFP WT cells = experiment: Cell viability after RSL3 with/without FCCP (CyQUANT DNA-based assay, fluorescence microscopy), mt-GFP WT cells; set-up: species or system mouse
HT22 cells [7] = experiment: MitoTracker Assay (mitochondrial mass); format: cell-based, mouse; conditions: 50 nM, vs control cells
Description: MitoTracker Assay. HT22 cells were seeded onto 96-well black walled plates at a density of 5,000 cells/well in DMEM supplemented with 10% FBS and 1% antibiotics. After the desired treatments, MitoTracker Orange CM−H2TMRos (Ex/Em=554/576 nm) and Hoechst 33342 (Ex/Em=360/460 nm) dyes were added to the cells and incubated under the same culture condition for 2 hr. Fluorescence was measured on a SpectraMax M5 microplate reader. Experiments were performed according to the manufacturer's instructions. Data were normalized for total protein/well. Each condition was analyzed in sixteen wells per independent experiment (n=16). Results were presented as the percentage of the controls with vehicle alone. Results were verified by live-cell imaging under a fluorescence microscope.

[8] = Cell-free, liposome-based assay of lipid peroxidation (STY-BODIPY); format: biochemical; conditions: test compounds 10 μM
Description: For the cell-free, liposome-based assay, STY-BODIPY (1.5 μM) and liposomes of egg-PC (1 mM) (Avanti Polar Lipids Inc, Cat #840051P, AL) in TBS (pH 7.4) were added to an opaque 96-well plate. This was followed by the addition of test compounds (10 μM). The plate was incubated for 30 min at 37° C. and then vigorously mixed for 5 min. The autoxidation was initiated by the addition of V-70 (0.5 mM) (Fujifilm Wako, Cat #001-70078, Japan), followed by additional mixing for 5 min. Data were acquired at Ex/Em=488/518 nm every 15 min at 37° C. on a SpectraMax M5 microplate reader. Data were transformed into [ox-STY-BODIPY] by taking the raw fluorescent values of the saturated curve of control DMSO and dividing them by the initial concentration of reduced STY-BODIPY ([…]). Samples were analyzed in quadruplicate in four independent experiments (n=4).

HT22 cells [9] = experiment: Oxytosis Assay (glutamate-induced cell death, MTT); format: cell-based, mouse; conditions: 5 mM, 16 hr, vs control group
Description: Oxytosis Assay. HT22 cells were seeded at 3,000 cells/well in 96-well tissue culture plates in DMEM plus 10% FBS and 1% antibiotics. After 24 hr of plating, the cells were pretreated with different concentrations of the test compounds or a vehicle control for 1 hr followed by coincubation with 5 mM glutamate to initiate the cell death cascade. After 16 hr of treatment, cell viability was measured by the 3−(4,5-dimethylthiazol-2-yl)-2,5-diphenyltetrazolium bromide (MTT) assay. Optical absorbance was measured at 570 nm on a SpectraMax M5 microplate reader. Samples were analyzed in eight to sixteen wells per independent experiment (n=8-16). Results were presented as the percentage of the controls with vehicle alone.

HT22 cells [10] = experiment: Oxytosis/ferroptosis assay with erastin (Table 2); format: cell-based; conditions: Mus musculus, HT-22; erastin as inducer; method not given; read-out: Observed EC50 erastin

N#CC(C#N)=NNc1ccc(OC(F)(F)F)cc1 [FCCP, carbonyl cyanide-4-(trifluoromethoxy)phenylhydrazone, reference compound]
cytotoxicity at 40 hr, 5 μM [1]: ~40% | cytotoxicity at 40 hr, 5 μM [2]: ~40%

COC1=C(OC)C(=O)C(CCCCCCCCCC[P+](c2ccccc2)(c2ccccc2)c2ccccc2)=C(C)C1=O [MitoQ]
protection against RSL3-induced cell death, no FCCP pretreatment [3]: effectively protected | protection against RSL3 after FCCP pretreatment (mitochondria-depleted cells) [3]: showed no cytoprotection

COC(=O)c1ccc([C@@H]2c3[nH]c4ccccc4c3C[C@@H](C(=O)OC)N2C(=O)CCl)cc1 [RSL3, reference compound]
increase of cellular lipid peroxidation level (HT22 cells [4]; 50 nM, 16 hr): approximately 30% | cell death by inducer alone (HT22 cells [5]; 50 nM, 16 hr, vs control group): 40-60% | effect on ΔΨm (HT22 cells [6]): no impact | cell viability in FCCP pretreated cells [3]: 10-15% | cell viability in FCCP pretreated cells (HT22 mt-GFP WT cells): 10-15% | decrease of MitoTracker intensity (HT22 cells [7]): 8.4%

CCOC(=O)c1ccc(NC2CCCCC2)c(N)c1 [ferrostatin]
RSL3-induced cellular lipid peroxidation (HT22 cells [4]; 50 nM RSL3, 16 hr, p<0.0001): effectively suppressed | basal cellular lipid peroxidation, compound alone (HT22 cells [4]; CBN 5 μM, ferrostatin 10 μM, 16 hr): neither CBN (5 μM) nor ferrostatin (10 μM) alone changed basal levels of lipid peroxidation | inhibition of lipid peroxidation, cell-free [8]: showed a potent effect against lipid peroxidation | protection against RSL3-induced cell death, no FCCP pretreatment [3]: effectively protected | protection against RSL3 after FCCP pretreatment (mitochondria-depleted cells) [3]: rescued

N[C@@H](CCC(=O)O)C(=O)O [glutamate, reference compound]
cell death by inducer alone (HT22 cells [9]): 40-60%

CCCCCc1cc(O)c2c(c1)O[C@]1(C)CC[C@@H](C(C)C)[C@H]2C1 [iso-HHC, (2α,5α,6α)-(−)-3,4,5,6-tetrahydro-2-methyl-5-(1-methylethyl)-9-pentyl-2,6-methano-2H-1-benzoxocin-7-ol]
pEC50 (HT22 cells [10]): 5.62 | pEC50 (HT22 cells [5]; Mus musculus, HT-22, HT22 cells, 1 hr pretreatment, 50 nM RSL3, 16 hr, MTT, read-out: Observed EC50 RSL3): 6.10
